Reference: ChEMBL document CHEMBL6083221, “11-Azaartemisinin derivatives bearing halogenated aromatic moieties: Potent anticancer agents with high tumor selectivity” (Bioorg Med Chem Lett, 2024)

Assays:
KB = assay: Antiproliferative activity against human KB cells; type: functional, cell-based
HepG2 = assay: Antiproliferative activity against human HepG2 cells; type: functional, cell-based
A549 = assay: Antiproliferative activity against human A549 cells; type: functional, cell-based
[1] = Cytotoxicity against human HEK293 cells; type: toxicity, cell-based
[2] = Selectivity ratio of IC50 for human HEK293 cells to IC50 for human KB cells; type: toxicity; conditions: HEK293 cells versus KB cells, read-out: Ratio IC50
[3] = Selectivity ratio of IC50 for human HEK293 cells to IC50 for human HepG2 cells; type: toxicity; conditions: HEK293 cells versus HepG2 cells, read-out: Ratio IC50
[4] = Selectivity ratio of IC50 for human HEK293 cells to IC50 for human A549 cells; type: toxicity; conditions: HEK293 cells versus A549 cells, read-out: Ratio IC50

Compound | IC50 (KB) [µM] | IC50 (HepG2) [µM] | IC50 (A549) [µM] | IC50 [1] [µM] | selectivity ratio [2] | selectivity ratio [3] | selectivity ratio [4]
C[C@@H]1CC[C@H]2[C@@H](C)C(=O)N(Cc3cn(-c4ccc(Br)cc4)nn3)[C@@H]3O[C@@]4(C)CC[C@@H]1[C@@]23OO4 | 26.4 | 34.9 | 45.9 |  |  |  | 
C[C@@H]1CC[C@H]2[C@@H](C)C(=O)N(Cc3cn(-c4cccc(F)c4)nn3)[C@@H]3O[C@@]4(C)CC[C@@H]1[C@@]23OO4 | > 280 | > 280 | > 280 |  |  |  | 
C[C@@H]1CC[C@H]2[C@@H](C)C(=O)N(Cc3cn(-c4cccc(Br)c4)nn3)[C@@H]3O[C@@]4(C)CC[C@@H]1[C@@]23OO4 | 7.7 | 42.5 | 15.5 | > 247 | 32 | 6 | 16
C[C@@H]1CC[C@H]2[C@@H](C)C(=O)N(Cc3cn(-c4ccc(I)cc4)nn3)[C@@H]3O[C@@]4(C)CC[C@@H]1[C@@]23OO4 | 10.3 | 31.3 | 9.2 | 12.4 |  |  | 
C[C@@H]1CC[C@H]2[C@@H](C)C(=O)N(Cc3cn(-c4ccccc4Br)nn3)[C@@H]3O[C@@]4(C)CC[C@@H]1[C@@]23OO4 | 32.3 | 42.5 | 32.9 |  |  |  | 
C[C@@H]1CC[C@H]2[C@@H](C)C(=O)N(Cc3cn(-c4cccc(Cl)c4)nn3)[C@@H]3O[C@@]4(C)CC[C@@H]1[C@@]23OO4 | 235 | 215 | 151 |  |  |  | 
C[C@@H]1CC[C@H]2[C@@H](C)C(=O)N(Cc3cn(-c4cccc(I)c4)nn3)[C@@H]3O[C@@]4(C)CC[C@@H]1[C@@]23OO4 | 10.6 | 9.4 | 135 | 46.3 | 4 | 5 | 
C[C@@H]1CC[C@H]2[C@@H](C)C(=O)N(Cc3cn(-c4ccccc4I)nn3)[C@@H]3O[C@@]4(C)CC[C@@H]1[C@@]23OO4 | 34.1 | 49.3 | 27.7 |  |  |  | 
Cc1c2ccncc2c(C)c2c1[nH]c1ccccc12 [ELLIPTECINE] | 1.7 | 1.7 | 1.7 | 6.3 |  |  | 
